Measurements from patent US20210147455A1 (SHAANXI SYNTHETIC PHARMACEUTICAL CO., LTD., priority 2018, published 2021).

Assays:
[1] = Stability experiments under 25° C.±2° C. and 65% R.H±5% R.H; details: 25° C./65% R.H
Text: • 1. […] The results are shown in detail in the following table.

[2] = Hygroscopicity study (Chinese Pharmacopoeia 2015, 9103); assay type: physicochemical; details: for Hygroscopic weight gain: 25° C.±1° C., saturated ammonium chloride solution, 24 hours; for Conclusion (hygroscopicity): after 24 hours
Experimental: Test method: • 1. A dried glass weighing bottle with stopper (having an outer diameter of 50 mm and a height of 15 mm) was placed in a thermostatic drier (a saturated ammonium chloride solution was placed on the lower part of the thermostatic drier) at an appropriate temperature of 25° C.±1° C. on the day earlier before the test, and the weight (m1) of weighing bottle was precisely weighed. • 2. An appropriate amount of test sample was taken and spread in the weighing bottle, and the thickness of the test sample was controlled to about 1 mm, and the weight (m2) was precisely weighed. • 3. The weighing bottle was opened and was placed, together with the bottle cap, under the above mentioned constant temperature and humidity condition for 24 hours. • 4. The weighing bottle was capped and precisely weighed to obtain the weight (m3).
Description of hygroscopicity characterization and delimitation of hygroscopicity weight gain: Deliquescence: enough moisture is absorbed to form a liquid. […] Slightly hygroscopic: hygroscopic weight gain is less than 2% but not less than 0.2%. Not or hardly hygroscopic: hygroscopic weight gain is less than 0.2%.

[3] = Stability experiments under 40° C.±2° C. and 75% R.H±5% R.H (accelerated test); assay type: physicochemical; details: 40° C./75% R.H

Molecule | Content ([1]; month 0) | Description ([1]; month 0) | Related substance ([1]; month 0) | Content ([1]; month 3) | Hygroscopic weight gain [2] | Content ([3]; month 0) | Description ([3]; month 0) | Related substance ([3]; month 0) | Content ([3]; month 1) | Description ([3]; month 1) | Related substance ([3]; month 1) | Content ([3]; month 2) | Description ([3]; month 2) | Related substance ([3]; month 2) | Content ([3]; month 3) | Description ([3]; month 3) | Related substance ([3]; month 3) | Content ([3]; month 6) | Description ([3]; month 6) | Related substance ([3]; month 6) | further results
CC[C@@H]([C@H](C)OP(=O)([O-])[O-])n1ncn(-c2ccc(N3CCN(c4ccc(OC[C@@H]5CO[C@@](Cn6cncn6)(c6ccc(F)cc6F)C5)cc4)CC3)cc2)c1=O.C[N+](C)(C)CCO.C[N+](C)(C)CCO [Comparative Example 1, Posaconazole Phosphate Bicholinate] | 99.87% | White | 0.13% | 99.86% | 8.76% | 99.87% | White | 0.13% | 99.86% | White | 0.14% | 99.84% | White | 0.16% | 99.80% | White | 0.20% | 99.65% | White | 0.35% | Description ([1]; month 3): White; Related substance ([1]; month 3): 0.14%; Content ([1]; month 6): 99.81%; Description ([1]; month 6): White; Related substance ([1]; month 6): 0.19%; Content ([1]; month 9): 99.77%; Description ([1]; month 9): White; Related substance ([1]; month 9): 0.23%; Content ([1]; month 12): 99.61%; Description ([1]; month 12): White; Related substance ([1]; month 12): 0.31%; Content ([1]; month 24): 99.22%; Description ([1]; month 24): White; Related substance ([1]; month 24): 0.78%
CCC(C(C)OP(=O)([O-])[O-])n1ncn(-c2ccc(N3CCN(c4ccc(OCC5COC(Cn6cncn6)(c6ccc(F)cc6F)C5)cc4)CC3)cc2)c1=O.C[N+](C)(C)CCO.C[N+](C)(C)CCO.O.O.O.O.O (centres unmarked) [Comparative Example 2, Posaconazole Phosphate Bicholinate Pentahydrate] | 99.87% | White | 0.13% | 99.86% | 11.81% | 99.87% | White | 0.13% | 99.86% | White | 0.14% | 99.85% | White | 0.16% | 99.79% | White | 0.21% | 99.64% | White | 0.36% | Description ([1]; month 3): White; Related substance ([1]; month 3): 0.14%; Content ([1]; month 6): 99.81%; Description ([1]; month 6): White; Related substance ([1]; month 6): 0.19%; Content ([1]; month 9): 99.75%; Description ([1]; month 9): White; Related substance ([1]; month 9): 0.25%; Content ([1]; month 12): 99.71%; Description ([1]; month 12): White; Related substance ([1]; month 12): 0.29%; Content ([1]; month 24): 99.18%; Description ([1]; month 24): White; Related substance ([1]; month 24): 0.82%
CC[C@@H]([C@H](C)OP(=O)(O)O)n1ncn(-c2ccc(N3CCN(c4ccc(OC[C@@H]5CO[C@@](Cn6cncn6)(c6ccc(F)cc6F)C5)cc4)CC3)cc2)c1=O.CNC[C@H](O)[C@@H](O)[C@H](O)[C@H](O)CO [Comparative Example 4, Posaconazole Phosphate Monomeglumine Salt] | 99.87% | White | 0.13% | 99.81% | 0.88% | 99.87% | White | 0.13% | 99.73% | White | 0.27% | 99.62% | White | 0.38% | 99.50% | White | 0.50% | 99.36% | White | 0.64% | Description ([1]; month 3): White; Related substance ([1]; month 3): 0.19%; Content ([1]; month 6): 99.69%; Description ([1]; month 6): White; Related substance ([1]; month 6): 0.31%; Content ([1]; month 9): 99.57%; Description ([1]; month 9): White; Related substance ([1]; month 9): 0.43%; Content ([1]; month 12): 99.50%; Description ([1]; month 12): White; Related substance ([1]; month 12): 0.50%; Content ([1]; month 24): 98.98%; Description ([1]; month 24): White; Related substance ([1]; month 24): 1.02%; Conclusion (hygroscopicity) [2]: Slight hygroscopicity
CC[C@@H]([C@H](C)OP(=O)(O)O)n1ncn(-c2ccc(N3CCN(c4ccc(OC[C@@H]5CO[C@@](Cn6cncn6)(c6ccc(F)cc6F)C5)cc4)CC3)cc2)c1=O.N=C(N)NCCC[C@H](N)C(=O)O [Comparative Example 5, Posaconazole Phosphate Monoarginine Salt] | 99.87% | White | 0.13% | 99.79% | 1.02% | 99.87% | White | 0.13% | 99.72% | White | 0.28% | 99.60% | White | 0.40% | 99.50% | White | 0.50% | 99.37% | White | 0.63% | Description ([1]; month 3): White; Related substance ([1]; month 3): 0.21%; Content ([1]; month 6): 99.71%; Description ([1]; month 6): White; Related substance ([1]; month 6): 0.29%; Content ([1]; month 9): 99.58%; Description ([1]; month 9): White; Related substance ([1]; month 9): 0.42%; Content ([1]; month 12): 99.49%; Description ([1]; month 12): White; Related substance ([1]; month 12): 0.51%; Content ([1]; month 24): 99.03%; Description ([1]; month 24): White; Related substance ([1]; month 24): 0.97%; Conclusion (hygroscopicity) [2]: Slight hygroscopicity
Posaconazole Phosphate Monosodium Salt [Comparative Example 8] | – | – | – | – | 1.92% | 99.87% | White | 0.13% | 99.71% | White | 0.29% | 99,63% | White | 0.37% | 99.47% | White | 0.53% | 99.32% | White | 0.68% | Conclusion (hygroscopicity) [2]: Slight hygroscopicity
